Laboratory results taken from publication PMC5538713, “RORγt and RORα signature genes in human Th17 cells” (PLoS ONE, 2017).
Like-named read-outs stand apart in the source and are kept apart here.

Columns and labels:
[1] = tested on: human CD4 T cells, IL-17A production; assay: Th17 differentiation assay (IL-17A production); assay type: cell-based; details: 72 h
[2] = tested on: human CD4 T cells, IFNγ production; assay: Th1 differentiation assay (IFNγ production); assay type: cell-based; details: 72 h
5HT2B (h) = biological target: T1, 5HT2B (h) (Homo sapiens, UniProt P41595); assay: Cerep selectivity panel; assay type: binding; details: for inhibition at 10 µM: read-out: % Inhibition at 10µM
T1 construct: purchased Cerep
Experimental: (§1) Supplementary file pone.0181868.s003.docx: S3 Table Selectivity profile of RORγt inverse agonists A, B, C and D. Compounds were evaluated at 1 μM and 10 μM in a panel of assays against 50 receptors, ion channels and transporters (Profile service by Cerep Inc.). (DOCX) Click here for additional data file.
(§2) S3 Table. RORɣt inverse agonists A, B, C and D were evaluated at 1 µM and 10 µM in a panel of assays against 50 receptors, ion channels and transporters (Profile service by Cerep Inc.).

5HT3 (h) = biological target: T2, 5HT3 (h) (Homo sapiens, UniProt P46098); assay: Cerep selectivity panel; assay type: binding; details: for inhibition at 1 µM: read-out: % Inhibition at 1µM; for inhibition at 10 µM: read-out: % Inhibition at 10µM
T2 construct: purchased Cerep
T2 sequence (P46098 24-478): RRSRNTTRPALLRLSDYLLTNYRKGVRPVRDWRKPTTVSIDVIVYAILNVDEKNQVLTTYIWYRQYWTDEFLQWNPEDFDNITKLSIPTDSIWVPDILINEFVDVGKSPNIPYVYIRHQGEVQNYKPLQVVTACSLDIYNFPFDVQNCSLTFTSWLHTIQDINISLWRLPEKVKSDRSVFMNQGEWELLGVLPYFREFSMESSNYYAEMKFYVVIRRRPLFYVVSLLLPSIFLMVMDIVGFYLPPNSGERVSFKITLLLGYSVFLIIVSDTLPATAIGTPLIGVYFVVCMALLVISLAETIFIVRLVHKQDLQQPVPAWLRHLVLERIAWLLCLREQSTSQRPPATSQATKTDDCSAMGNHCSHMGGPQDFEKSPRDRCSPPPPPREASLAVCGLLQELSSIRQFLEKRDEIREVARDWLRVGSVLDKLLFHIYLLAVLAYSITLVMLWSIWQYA
Experimental: as §1, §2

A1 (h) = biological target: T3, A1 (h) (Homo sapiens, UniProt P30542); assay: Cerep selectivity panel; assay type: binding; details: for inhibition at 1 µM: read-out: % Inhibition at 1µM; for inhibition at 10 µM: read-out: % Inhibition at 10µM
T3 construct: purchased Cerep
T3 sequence (P30542 1-326): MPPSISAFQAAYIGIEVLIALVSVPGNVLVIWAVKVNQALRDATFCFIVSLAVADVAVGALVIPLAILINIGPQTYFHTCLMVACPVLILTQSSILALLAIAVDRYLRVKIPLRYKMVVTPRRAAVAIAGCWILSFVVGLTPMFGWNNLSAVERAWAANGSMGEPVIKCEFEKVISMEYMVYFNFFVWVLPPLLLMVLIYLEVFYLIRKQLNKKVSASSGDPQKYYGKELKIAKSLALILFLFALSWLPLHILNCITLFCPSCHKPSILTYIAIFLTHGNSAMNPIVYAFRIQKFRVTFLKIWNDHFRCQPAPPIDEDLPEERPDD
Experimental: as §1, §2

AT1 (h) = biological target: T4, AT1 (h) (Homo sapiens, UniProt P30556); assay: Cerep selectivity panel; assay type: binding; details: for inhibition at 1 µM: read-out: % Inhibition at 1µM; for inhibition at 10 µM: read-out: % Inhibition at 10µM
T4 construct: purchased Cerep
T4 sequence (P30556 1-359): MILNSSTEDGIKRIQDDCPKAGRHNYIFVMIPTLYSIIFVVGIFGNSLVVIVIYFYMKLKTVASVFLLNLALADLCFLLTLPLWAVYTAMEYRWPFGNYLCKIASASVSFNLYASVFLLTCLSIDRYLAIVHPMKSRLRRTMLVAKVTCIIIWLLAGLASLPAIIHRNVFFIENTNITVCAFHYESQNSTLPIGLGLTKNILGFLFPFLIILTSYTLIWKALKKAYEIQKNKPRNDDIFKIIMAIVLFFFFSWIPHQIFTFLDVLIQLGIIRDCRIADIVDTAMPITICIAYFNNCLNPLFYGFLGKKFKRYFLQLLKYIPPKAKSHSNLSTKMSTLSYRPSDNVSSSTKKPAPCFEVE
Experimental: as §1, §2

DA-T = biological target: T5, DA-T (Homo sapiens, UniProt Q01959); assay: Cerep selectivity panel; assay type: binding; details: for inhibition at 1 µM: read-out: % Inhibition at 1µM; for inhibition at 10 µM: read-out: % Inhibition at 10µM
T5 construct: purchased Cerep
Experimental: as §1, §2

MC4 (h) = biological target: T6, MC4 (h) (Homo sapiens, UniProt P32245); assay: Cerep selectivity panel; assay type: binding; details: for inhibition at 10 µM: read-out: % Inhibition at 10µM; for inhibition at 1 µM: read-out: % Inhibition at 1µM
T6 construct: purchased Cerep
Experimental: as §1, §2

NE-T = biological target: T7, NE-T (Homo sapiens, UniProt P23975); assay: Cerep selectivity panel; assay type: binding; details: for inhibition at 1 µM: read-out: % Inhibition at 1µM; for inhibition at 10 µM: read-out: % Inhibition at 10µM
T7 construct: purchased Cerep
Experimental: as §1, §2

V1 a (h) = biological target: T8, V1 a (h) (Homo sapiens, UniProt P37288); assay: Cerep selectivity panel; assay type: binding; details: for inhibition at 10 µM: read-out: % Inhibition at 10µM
T8 construct: purchased Cerep
Experimental: as §1, §2

GABA = assay: Cerep selectivity panel; assay type: binding
[3] = tested on: human CD4 T cells under Th17 conditions; assay: cells; details: read-out: Th17 Proliferation (IC50, nM)
CCR1 (h) = biological target: T9, CCR1 (h) (Homo sapiens, UniProt P32246); assay: Cerep selectivity panel; assay type: binding
T9 construct: purchased Cerep
Experimental: as §1, §2

M1 (h) = biological target: T10, M1 (h) (Homo sapiens, UniProt P11229); assay: Cerep selectivity panel; assay type: binding
T10 construct: purchased Cerep
T10 sequence (P11229 1-460): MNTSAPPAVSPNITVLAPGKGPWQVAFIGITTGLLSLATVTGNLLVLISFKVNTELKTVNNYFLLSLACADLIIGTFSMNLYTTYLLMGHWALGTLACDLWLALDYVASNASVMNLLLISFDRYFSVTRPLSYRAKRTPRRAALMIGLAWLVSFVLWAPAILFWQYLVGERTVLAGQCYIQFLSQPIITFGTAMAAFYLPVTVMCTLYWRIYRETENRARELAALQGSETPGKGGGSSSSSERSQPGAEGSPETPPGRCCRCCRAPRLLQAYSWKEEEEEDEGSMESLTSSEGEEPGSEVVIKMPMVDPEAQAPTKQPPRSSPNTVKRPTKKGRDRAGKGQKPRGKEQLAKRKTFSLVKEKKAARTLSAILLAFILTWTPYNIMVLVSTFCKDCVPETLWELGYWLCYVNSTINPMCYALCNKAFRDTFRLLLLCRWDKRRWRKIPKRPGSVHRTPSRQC
Experimental: as §1, §2

[4] = Homo sapiens, CD4+ T, read-out: Th17 Differentiation (IL-17A production) (IC50, nM)
[5] = Homo sapiens, CD4+ T, read-out: Th1 Differentiation (IFNγ production) (IC50, nM)

T8 sequence (P37288 whole entry): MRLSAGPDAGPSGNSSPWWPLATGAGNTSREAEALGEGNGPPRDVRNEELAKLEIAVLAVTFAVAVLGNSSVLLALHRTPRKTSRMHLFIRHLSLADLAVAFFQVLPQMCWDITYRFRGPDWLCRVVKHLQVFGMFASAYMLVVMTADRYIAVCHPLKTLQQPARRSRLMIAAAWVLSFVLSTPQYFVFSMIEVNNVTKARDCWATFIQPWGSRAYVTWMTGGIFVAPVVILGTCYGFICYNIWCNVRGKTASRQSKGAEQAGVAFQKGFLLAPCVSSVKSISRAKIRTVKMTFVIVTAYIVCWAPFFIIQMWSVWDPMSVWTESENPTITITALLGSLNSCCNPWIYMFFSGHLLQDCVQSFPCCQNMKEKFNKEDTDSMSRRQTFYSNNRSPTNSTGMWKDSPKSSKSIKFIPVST
T6 sequence (P32245 whole entry): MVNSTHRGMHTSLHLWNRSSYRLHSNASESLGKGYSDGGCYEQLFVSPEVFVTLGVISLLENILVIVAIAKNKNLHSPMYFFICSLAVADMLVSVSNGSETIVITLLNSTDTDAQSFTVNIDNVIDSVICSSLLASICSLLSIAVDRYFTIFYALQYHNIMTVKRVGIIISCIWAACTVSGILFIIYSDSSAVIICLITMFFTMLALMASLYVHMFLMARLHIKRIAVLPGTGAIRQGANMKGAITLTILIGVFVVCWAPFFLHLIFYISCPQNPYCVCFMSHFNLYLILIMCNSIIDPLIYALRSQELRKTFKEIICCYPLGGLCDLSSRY
T5 sequence (Q01959 whole entry): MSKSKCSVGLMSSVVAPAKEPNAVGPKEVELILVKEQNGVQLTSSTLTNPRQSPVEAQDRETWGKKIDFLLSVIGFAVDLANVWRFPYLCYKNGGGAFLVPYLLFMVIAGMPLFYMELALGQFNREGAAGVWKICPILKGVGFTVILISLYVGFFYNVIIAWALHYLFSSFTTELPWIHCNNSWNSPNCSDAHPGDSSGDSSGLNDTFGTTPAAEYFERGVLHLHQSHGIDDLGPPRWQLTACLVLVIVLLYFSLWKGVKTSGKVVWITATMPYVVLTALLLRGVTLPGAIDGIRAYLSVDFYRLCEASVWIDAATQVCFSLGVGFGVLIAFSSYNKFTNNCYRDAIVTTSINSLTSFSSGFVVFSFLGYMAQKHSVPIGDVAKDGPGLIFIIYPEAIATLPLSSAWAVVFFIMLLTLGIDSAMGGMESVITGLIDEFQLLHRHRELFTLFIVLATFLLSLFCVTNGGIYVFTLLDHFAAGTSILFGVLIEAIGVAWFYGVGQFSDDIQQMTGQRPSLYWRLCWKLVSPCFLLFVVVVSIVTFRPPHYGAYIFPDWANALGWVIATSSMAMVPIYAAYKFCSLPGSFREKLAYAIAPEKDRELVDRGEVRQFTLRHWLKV
T1 sequence (P41595 whole entry): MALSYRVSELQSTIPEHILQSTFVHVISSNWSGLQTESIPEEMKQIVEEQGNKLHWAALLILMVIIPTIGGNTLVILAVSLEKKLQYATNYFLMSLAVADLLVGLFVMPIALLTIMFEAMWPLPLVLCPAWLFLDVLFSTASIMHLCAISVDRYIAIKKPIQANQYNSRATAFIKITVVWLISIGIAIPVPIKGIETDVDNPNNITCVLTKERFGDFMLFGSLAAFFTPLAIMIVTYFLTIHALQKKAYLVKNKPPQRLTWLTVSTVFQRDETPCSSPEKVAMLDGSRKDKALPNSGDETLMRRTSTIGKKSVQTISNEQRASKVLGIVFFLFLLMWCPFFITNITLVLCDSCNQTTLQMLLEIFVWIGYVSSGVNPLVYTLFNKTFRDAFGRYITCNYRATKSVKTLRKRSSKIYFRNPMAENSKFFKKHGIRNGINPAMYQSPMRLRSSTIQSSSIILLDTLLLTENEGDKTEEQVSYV
T7 sequence (P23975 whole entry): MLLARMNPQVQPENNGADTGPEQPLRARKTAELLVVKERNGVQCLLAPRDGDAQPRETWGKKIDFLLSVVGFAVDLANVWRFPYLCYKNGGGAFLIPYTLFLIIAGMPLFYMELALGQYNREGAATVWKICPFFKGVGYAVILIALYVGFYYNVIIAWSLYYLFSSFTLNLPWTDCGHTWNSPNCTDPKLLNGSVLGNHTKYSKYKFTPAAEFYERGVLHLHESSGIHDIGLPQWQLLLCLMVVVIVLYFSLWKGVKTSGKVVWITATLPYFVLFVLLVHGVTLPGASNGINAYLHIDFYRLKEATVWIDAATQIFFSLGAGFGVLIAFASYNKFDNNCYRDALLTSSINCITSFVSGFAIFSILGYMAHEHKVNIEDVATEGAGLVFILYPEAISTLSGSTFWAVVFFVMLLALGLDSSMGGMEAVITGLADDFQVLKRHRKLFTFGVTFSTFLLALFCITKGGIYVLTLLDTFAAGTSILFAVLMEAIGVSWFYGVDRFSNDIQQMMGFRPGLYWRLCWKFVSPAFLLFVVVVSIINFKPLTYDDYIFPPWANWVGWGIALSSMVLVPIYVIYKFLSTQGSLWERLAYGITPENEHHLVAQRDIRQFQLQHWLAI
T9 sequence (P32246 whole entry): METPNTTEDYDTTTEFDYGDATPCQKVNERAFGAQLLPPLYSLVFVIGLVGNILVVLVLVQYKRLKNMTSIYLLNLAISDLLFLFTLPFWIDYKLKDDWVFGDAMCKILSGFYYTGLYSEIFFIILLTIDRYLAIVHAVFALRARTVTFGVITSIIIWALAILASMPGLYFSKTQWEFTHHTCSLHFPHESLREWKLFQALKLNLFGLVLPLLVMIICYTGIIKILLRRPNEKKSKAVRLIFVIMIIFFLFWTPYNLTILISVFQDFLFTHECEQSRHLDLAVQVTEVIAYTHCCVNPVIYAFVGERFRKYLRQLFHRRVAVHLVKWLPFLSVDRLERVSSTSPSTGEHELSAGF

| Structure (SMILES) | % Inhibition at 1µM (GABA) | IC50 [3] | IC50 [1, 4] | IC50 [2, 5] | inhibition at 1 µM (5HT3 (h)) | inhibition at 10 µM (5HT3 (h)) | inhibition at 10 µM (AT1 (h)) | inhibition at 10 µM (MC4 (h)) | inhibition at 1 µM (NE-T) | inhibition at 10 µM (NE-T) | inhibition at 10 µM (V1 a (h)) | inhibition at 10 µM (5HT2B (h)) | inhibition at 1 µM (DA-T) | inhibition at 10 µM (DA-T) | inhibition at 1 µM (M1 (h)) | inhibition at 10 µM (M1 (h)) | inhibition at 1 µM (MC4 (h)) | also measured |
| --- | --- | --- | --- | --- | --- | --- | --- | --- | --- | --- | --- | --- | --- | --- | --- | --- | --- | --- |
| COc1nc2ccc([C@@](O)(c3ccc(C)nc3C)c3cnnn3C)cc2c(Cl)c1Cc1ccc(C(F)(F)F)cc1 [compound A] | 8% | > 240 nM |  |  |  |  |  |  |  |  |  |  |  |  |  |  |  | IC50 ([1]; human CD4 T cells, 3 days, read-out: Th17 Differentiation (IL-17A production) (IC50)): 3.7 nM; IC50 ([2]; human CD4 T cells, 3 days, read-out: Th1 Differentiation (IFNγ production) (IC50)): > 240 nM; inhibition at 10 µM (5HT2B (h); 5HT2B (h), 10 µM): 43%; inhibition at 1 µM (5HT3 (h); 5HT3 (h), 1 µM): 7%; inhibition at 10 µM (5HT3 (h); 5HT3 (h), 10 µM): 29%; inhibition at 1 µM (A1 (h); A1 (h), 1 µM): 19%; inhibition at 10 µM (A1 (h); A1 (h), 10 µM): 30%; inhibition at 1 µM (AT1 (h); AT1 (h), 1 µM): 0%; inhibition at 10 µM (AT1 (h); AT1 (h), 10 µM): 32%; inhibition at 1 µM (DA-T; DA-T, 1 µM): 38%; inhibition at 10 µM (DA-T; DA-T, 10 µM): 81%; inhibition at 10 µM (MC4 (h); MC4 (h), 10 µM): 9%; inhibition at 1 µM (NE-T; NE-T, 1 µM): 44%; inhibition at 10 µM (NE-T; NE-T, 10 µM): 86%; inhibition at 10 µM (V1 a (h); V1 a (h), 10 µM): 19% |
| COc1nc2ccc([C@](O)(c3ccc(Cl)cc3)c3cncn3C)cc2c(Cl)c1Cc1ccc(-n2cccn2)cc1 [B] | 9% | > 240 nM | 84.5 nM | > 240 nM | 16% | 19% | 16% | 6% | 21% | 38% | 10% |  |  |  |  |  |  | inhibition at 1 µM (AT1 (h)): 1%; inhibition at 1 µM (V1 a (h); read-out: % Inhibition at 1µM): 10% |
| COc1nc2ccc([C@@](O)(c3ccccc3)C3CCN(C(C)=O)CC3)cc2c(Cl)c1Cc1ccc(-n2cccn2)cc1 [C] |  | > 240 nM | 18.3 nM | > 240 nM |  | 18% | 11% |  | 19% | 38% |  | 1% | 17% | 25% | 12% | 21% | 14% | inhibition at 1 µM (5HT2B (h); read-out: % Inhibition at 1µM): 17.5%; inhibition at 1 µM (CCR1 (h); 1 µM): 17%; % Inhibition at 10µM (GABA; 10 µM): 12% |
| CN(C)c1nc2ccc(C(O)(c3ccncc3)c3cncn3C)cc2c(Cl)c1-c1ccccc1 (stereo not shown) [compound D] |  |  | 22.2 nM | > 240 nM | 8% | 17% | 28% | 25% | 5% | 76% | 12% | 106% | 23% | 87% | 6% | 67% | 3% | inhibition at 1 µM (A1 (h)): 18%; inhibition at 10 µM (A1 (h)): 50%; inhibition at 10 µM (CCR1 (h); 10 µM): 6% |
